Results: EP4772505A1, “COMPOUND FOR DEGRADING ANDROGEN RECEPTOR AND MEDICAL USE THEREOF” (Ubix Therapeutics, Inc., priority 2023, dated 2025)

The compounds below were run against T1, Androgen Receptor (AR) (Homo sapiens, UniProt P10275, T878A) (assay: Measurement of AR protein degradation in LNCaP cells by Western blotting). Conditions: 10 nM compound, 20 hours, LNCaP cells; read-out: AR degradation in LNCaP cells (%).
T1 construct: endogenous in cells; host or cells: LNCaP
T1 sequence (P10275 1-920 T878A): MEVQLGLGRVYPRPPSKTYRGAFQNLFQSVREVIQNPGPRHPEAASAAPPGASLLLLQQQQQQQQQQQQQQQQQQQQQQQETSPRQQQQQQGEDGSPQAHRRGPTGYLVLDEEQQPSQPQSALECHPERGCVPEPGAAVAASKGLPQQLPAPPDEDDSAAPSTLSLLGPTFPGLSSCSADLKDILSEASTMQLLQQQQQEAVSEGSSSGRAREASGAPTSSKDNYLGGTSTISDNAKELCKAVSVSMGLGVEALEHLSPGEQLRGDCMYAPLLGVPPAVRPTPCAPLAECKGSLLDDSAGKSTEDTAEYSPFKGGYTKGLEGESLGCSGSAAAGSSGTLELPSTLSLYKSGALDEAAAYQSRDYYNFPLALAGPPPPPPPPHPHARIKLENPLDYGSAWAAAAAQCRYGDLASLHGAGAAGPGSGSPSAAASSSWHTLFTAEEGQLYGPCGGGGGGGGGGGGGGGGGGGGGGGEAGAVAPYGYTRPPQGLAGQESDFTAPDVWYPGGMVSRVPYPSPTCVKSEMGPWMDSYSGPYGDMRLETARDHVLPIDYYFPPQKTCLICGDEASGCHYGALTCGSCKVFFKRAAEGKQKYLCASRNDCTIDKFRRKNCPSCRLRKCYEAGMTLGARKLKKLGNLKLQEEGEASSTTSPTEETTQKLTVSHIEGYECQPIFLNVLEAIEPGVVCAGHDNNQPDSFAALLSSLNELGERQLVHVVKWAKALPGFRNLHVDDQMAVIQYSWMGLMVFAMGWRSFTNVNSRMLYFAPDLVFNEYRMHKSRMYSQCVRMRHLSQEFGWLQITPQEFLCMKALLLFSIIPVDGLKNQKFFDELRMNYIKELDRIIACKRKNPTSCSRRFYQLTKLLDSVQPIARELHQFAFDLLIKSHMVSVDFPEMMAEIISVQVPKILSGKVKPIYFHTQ
Type: cell-based
Method: The amount of AR protein present in LNCaP or VCaP cells was measured after treating them with the synthesized compound. The amount of AR protein was measured using Western blotting. The protocol for the experiments using LNCaP or VCaP cells was as follows.
[Culture] LNCaP cells were resuspended in RPMI1640 medium + HEPES (Hyclone, SH30255.01), 10% FBS (Hyclone, SV30207.02), and 1% Penicillin-streptomycin (Welgene, LS 202-02). 3 x 10^5 cells/mL were seeded in 12-well plates (1 mL per well) and cultured for 3 days. VCaP cells were resuspended in IMDM MEDIUM (Hyclone, SH30228.01), 20% FBS (Hyclone, SV30207.02), and 1% Penicillin-streptomycin (Welgene, LS 202-02), seeded at 9 x 10^5/mL in 1 mL per 12-well plate, and cultured for 3 days.
[Compound Treatment] 10 µL of 100x stock (e.g., 0.1, 1, 10 µM) compound solution at the final compound treatment concentration (e.g., 0.001, 0.01, 0.1 µM) was added to each well in 1 mL media, and cells were harvested after 20 hours. For DC50 measurement, 100x stock (0.01, 0.1, 1, 10, 100, 1000 µM) compound solutions at the final compound treatment concentration (0.0001, 0.001, 0.01, 0.1, 1, 10 µM) were used.
[Cell lysis] The cell pellet was suspended using 1% SDS lysis buffer (50 mM Tris, 1 mM EDTA, 1% SDS, pH 8.0, 0.5 mM PMSF, 1x Protease/Phosphatase inhibitor Cocktail (Cell Signaling Technology, 5872S)), and sonication (70% AMP, 10 cycles (30 sec ON/59 sec OFF)) was performed. After centrifugation at 4°C and 20,000 g for 20 minutes, the cell lysate was obtained and transferred to a new tube.
[Protein Quantification] A BCA protein assay (SMART™ BCA Protein Assay Kit, iNtRON Biotechnology, 21071) was performed using a 96-well microplate. 5 µL of cell lysate and 5 µL of 1% SDS lysis buffer were added to each well of the 96-well plate, followed by an additional 200 µL of BCA reagent (Reagent A: Reagent B = 50:1). The wells were incubated at 37°C for 30 minutes and cooled to room temperature for 10 minutes. After shaking for 10 seconds, the absorbance was measured at a wavelength of 562 nm. The unknown protein concentration was determined using a BSA standard curve (0, 0.125, 0.25, 0.5, 1, 2 mg/mL). Western blotting samples were prepared by mixing cell lysate, 1% SDS lysis buffer, 4x NuPAGE™ LDS Sample buffer (Invitrogen, NP0008), and 10X NuPAGE™ Sample Reducing Agent (Invitrogen, NP0009) and boiling at 70°C for 10 minutes.
[Electrophoresis] 10 µg of protein sample was loaded into each well of a NuPAGE™ 4 to 12%, Bis-Tris, 1.0 mm Mini Protein Gel, 15-well, 17-well, or 26-well (Invitrogen, NP0323BOX, NP0329BOX, or WG1403BOX) and electrophoresed for 40 minutes using NuPAGE™MES SDS Running Buffer (Invitrogen, NP0002) at 200 V (constant V).
[Transfer] Transfer was performed for 15 or 18 minutes using the electrophoresed gel and the Trans-Blot® Turbo™ Transfer Starter System (Bio-RAD, #17001918, Mini Nitrocellulose) at 1.3 A (constant A) and 25 V (limit V). To confirm protein transfer, 15 mL of Ponceau S solution (Sigma, P7170-1L) was used to stain for 1 minute, and then washed to check the degree of transfer.
[Blocking] The membrane for AR and GAPDH detection was blocked with 5% skim milk/0.2% TBST (Skim milk: BD, 232100/ 20X TBS: Biosesang, TR2008-100-00/ 10% Tween 20 Solution: Bio-RAD, #161-0781) for 45 minutes.
[Antibodies and Detection] Primary AR antibody (Androgen Receptor: CST, 5153S) was mixed with 5% skim milk/0.2% TBST at a ratio of 1:1,000 and reacted at room temperature for 3 hours or at 4°C overnight. Primary GAPDH antibody (CST, 2118S) was mixed with 5% skim milk/0.2% TBST at a ratio of 1:2,000 and reacted at room temperature for 3 hours or at 4°C overnight. Afterwards, TBST (0.2% Tween 20) was used for washing three times every 5 minutes. Secondary antibody to AR antibody, Anti-rabbit IgG, HRP-linked Antibody (CST, 7074S), was mixed with 5% skim milk/0.2% TBST at a ratio of 1:5,000 and reacted at room temperature for 45 minutes. […]

Row | Dmax at 0.01 µM [%] | SMILES
1 | 91 | COc1cc(N2CCC(C(=O)Nc3ccc(OC4CCN(CC5CCN(c6ccc(NC7CCC(=O)NC7=O)cc6F)CC5)CC4)cn3)CC2)ccc1C#N (stereo not shown) [Example 13, 1-(4-cyano-3-methoxyphenyl)-N-(5-((1-((1-(4-((2,6-dioxopiperidin-3-yl)amino)-2-fluorophenyl)piperidin-4-yl)methyl)piperidin-4-yl)oxy)pyridin-2-yl)piperidine-4-carboxamide]
2 | 93 | COc1cc(N2CCC(C(=O)Nc3ccc(OC4CCN(CC5CCN(c6ccc(NC7CCC(=O)NC7=O)cc6F)CC5)CC4)nn3)CC2)ccc1C#N (stereo not shown) [Example 16, 1-(4-cyano-3-methoxyphenyl)-N-(6-((1-((1-(4-((2,6-dioxopiperidin-3-yl)amino)-2-fluorophenyl)piperidin-4-yl)methyl)piperidin-4-yl)oxy)pyridazin-3-yl)piperidine-4-carboxamide]

Same assay, conditions: 100 nM compound, 20 hours, LNCaP cells; read-out: AR degradation in LNCaP cells (%)

Row | Dmax at 0.1 µM [%] | SMILES
3 | 99 | COc1cc(N2CCC(C(=O)Nc3ccc(OC4CCN(CC5CCN(c6ccc(NC7CCC(=O)NC7=O)cc6F)CC5)CC4)cn3)CC2)ccc1C#N (stereo not shown) [Example 13, 1-(4-cyano-3-methoxyphenyl)-N-(5-((1-((1-(4-((2,6-dioxopiperidin-3-yl)amino)-2-fluorophenyl)piperidin-4-yl)methyl)piperidin-4-yl)oxy)pyridin-2-yl)piperidine-4-carboxamide]
4 | 98 | COc1cc(N2CCC(C(=O)Nc3ccc(OC4CCN(CC5CCN(c6ccc(NC7CCC(=O)NC7=O)cc6F)CC5)CC4)nn3)CC2)ccc1C#N (stereo not shown) [Example 16, 1-(4-cyano-3-methoxyphenyl)-N-(6-((1-((1-(4-((2,6-dioxopiperidin-3-yl)amino)-2-fluorophenyl)piperidin-4-yl)methyl)piperidin-4-yl)oxy)pyridazin-3-yl)piperidine-4-carboxamide]

Same assay, conditions: LNCaP, 20 h, read-out: AR degradation in LNCaP cells (%)

Row | SMILES | Dmax at 0.01 µM [%] | Dmax at 0.1 µM [%]
5 | N#Cc1ccc(N2CCC(C(=O)Nc3ccc(OC4CCN(CC5CCN(c6ccc(NC7CCC(=O)NC7=O)cc6F)CC5)CC4)cn3)CC2)cc1C(F)(F)F (stereo not shown) [Example 1, 1-(4-cyano-3-(trifluoromethyl)phenyl)-N-(5-((1-((1-(4-((2,6-dioxopiperidin-3-yl)amino)-2-fluorophenyl)piperidin-4-yl)methyl)piperidin-4-yl)oxy)pyridin-2-yl)piperidine-4-carboxamide] | 84 | 99
6 | N#Cc1ccc(N2CCC(C(=O)Nc3ccc(OC4CCN(CC5CCN(c6ccc(N[C@H]7CCC(=O)NC7=O)cc6F)CC5)CC4)cn3)CC2)cc1C(F)(F)F [Example 2, (S)-1-(4-cyano-3-(trifluoromethyl)phenyl)-N-(5-((1-((1-(4-((2,6-dioxopiperidin-3-yl)amino)-2-fluorophenyl)piperidin-4-yl)methyl)piperidin-4-yl)oxy)pyridin-2-yl)piperidine-4-carboxamide] | 86 | 99
7 | N#Cc1ccc(N2CCC(C(=O)Nc3ccc(OC4CCN(CC5CCN(c6ccc(N[C@@H]7CCC(=O)NC7=O)cc6F)CC5)CC4)cn3)CC2)cc1C(F)(F)F [Example 3, (R)-1-(4-cyano-3-(trifluoromethyl)phenyl)-N-(5-((1-((1-(4-((2,6-dioxopiperidin-3-yl)amino)-2-fluorophenyl)piperidin-4-yl)methyl)piperidin-4-yl)oxy)pyridin-2-yl)piperidine-4-carboxamide] | 93 | 99
8 | N#Cc1ccc(N2CCC(C(=O)Nc3ccc(OC4CCN(CC5CCN(c6ccc(NC7CCC(=O)NC7=O)cc6F)CC5)CC4)nn3)CC2)cc1C(F)(F)F (stereo not shown) [Example 7, 1-(4-cyano-3-(trifluoromethyl)phenyl)-N-(6-((1-((1-(4-((2,6-dioxopiperidin-3-yl)amino)-2-fluorophenyl)piperidin-4-yl)methyl)piperidin-4-yl)oxy)pyridazin-3-yl)piperidine-4-carboxamide] | 79 | 93
9 | N#Cc1ccc(N2CCC(C(=O)Nc3ccc(OC4CCN(CC5CCN(c6ccc(NC7CCC(=O)NC7=O)cc6F)CC5)CC4)cn3)CC2)cc1Cl (stereo not shown) [Example 8, 1-(3-chloro-4-cyanophenyl)-N-(5-((1-((1-(4-((2,6-dioxopiperidin-3-yl)amino)-2-fluorophenyl)piperidin-4-yl)methyl)piperidin-4-yl)oxy)pyridin-2-yl)piperidine-4-carboxamide] | 91 | 98
10 | N#Cc1ccc(N2CCC(C(=O)Nc3ccc(OC4CCN(CC5CCN(c6ccc(N[C@H]7CCC(=O)NC7=O)cc6F)CC5)CC4)cn3)CC2)cc1Cl [Example 9, (S)-1-(3-chloro-4-cyanophenyl)-N-(5-((1-((1-(4-((2,6-dioxopiperidin-3-yl)amino)-2-fluorophenyl)piperidin-4-yl)methyl)piperidin-4-yl)oxy)pyridin-2-yl)piperidine-4-carboxamide] | 86 | 96
11 | N#Cc1ccc(N2CCC(C(=O)Nc3ccc(OC4CCN(CC5CCN(c6ccc(N[C@@H]7CCC(=O)NC7=O)cc6F)CC5)CC4)cn3)CC2)cc1Cl [Example 10, (R)-1-(3-chloro-4-cyanophenyl)-N-(5-((1-((1-(4-((2,6-dioxopiperidin-3-yl)amino)-2-fluorophenyl)piperidin-4-yl)methyl)piperidin-4-yl)oxy)pyridin-2-yl)piperidine-4-carboxamide] | 90 | 99
12 | N#Cc1ccc(N2CCC(C(=O)Nc3ccc(OC4CCN(CC5CCN(c6ccc(NC7CCC(=O)NC7=O)cc6F)CC5)CC4)cn3)CC2)c(F)c1Cl (stereo not shown) [Example 12, 1-(3-chloro-4-cyano-2-fluorophenyl)-N-(5-((1-((1-(4-((2,6-dioxopiperidin-3-yl)amino)-2-fluorophenyl)piperidin-4-yl)methyl)piperidin-4-yl)oxy)pyridin-2-yl)piperidine-4-carboxamide] | 88 | 96
13 | N#Cc1ccc(N2CCC(C(=O)Nc3ccc(OC4CCN(CC5CCN(c6ccc(NC7CCC(=O)NC7=O)cc6F)CC5)CC4)nn3)CC2)c(F)c1Cl (stereo not shown) [Example 15, 1-(3-chloro-4-cyano-2-fluorophenyl)-N-(6-((1-((1-(4-((2,6-dioxopiperidin-3-yl)amino)-2-fluorophenyl)piperidin-4-yl)methyl)piperidin-4-yl)oxy)pyridazin-3-yl)piperidine-4-carboxamide] | 88 | 90
